Measurements as given in US11957687B2 (REGENERON PHARMACEUTICALS, INC., priority 2019, dated 2024).

Biological target: HSD17B13 (Homo sapiens (Human), UniProt Q7Z5P4)
Test: HSD17B13 enzymatic inhibition assay (150 nM or 50 nM HSD17B13)
Format: biochemical
Conditions: 50 nM HSD17B13; read-out: Inhibition of 50 nM of HSD17B13 IC50

Sequence of HSD17B13 (Q7Z5P4 other isoform, or with tags, fused parts or gaps): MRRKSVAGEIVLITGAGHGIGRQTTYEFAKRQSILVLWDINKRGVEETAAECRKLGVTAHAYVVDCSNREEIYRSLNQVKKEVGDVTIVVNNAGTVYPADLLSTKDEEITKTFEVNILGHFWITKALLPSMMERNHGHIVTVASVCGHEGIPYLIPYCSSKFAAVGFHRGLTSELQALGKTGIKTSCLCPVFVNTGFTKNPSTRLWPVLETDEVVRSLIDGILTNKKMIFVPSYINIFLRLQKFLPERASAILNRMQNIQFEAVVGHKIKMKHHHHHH

| IC50 | Compound |
| --- | --- |
| 0.68 µM | Cc1ccc2c(c1)CCC2NC(=O)c1ccc(C(F)(F)F)[nH]c1=O (centres unmarked) [Compound 238, N-(5-methyl-2,3-dihydro-1H-inden-1-yl)-2-oxo-6-(trifluoromethyl)-1,2-dihydropyridine-3-carboxamide] |
| 0.1 µM | COc1ccc2c(c1)Oc1cc(OC)ccc1C2NC(=O)c1cc(-c2ccccc2)c(C(F)(F)F)[nH]c1=O [Compound 239, N-(3,6-dimethoxy-9H-xanthen-9-yl)-2-oxo-5-phenyl-6-(trifluoromethyl)-1,2-dihydropyridine-3-carboxamide] |
| 0.11 µM | COc1ccc2c(c1)Oc1cc(OC)ccc1C2NC(=O)c1cc(C)c(C(F)(F)F)[nH]c1=O [Compound 240, N-(3,6-dimethoxy-9H-xanthen-9-yl)-5-methyl-2-oxo-6-(trifluoromethyl)-1,2-dihydropyridine-3-carboxamide] |
| 0.07 µM | COc1ccc2c(c1)Sc1ccccc1C2NC(=O)c1ccc(C(F)(F)F)[nH]c1=O (centres unmarked) [Compound 242, N-(3-methoxy-9H-thioxanthen-9-yl)-2-oxo-6-(trifluoromethyl)-1,2-dihydropyridine-3-carboxamide] |
| 2.16 µM | COc1ccccc1C(NC(=O)c1ccc(C(F)(F)F)[nH]c1=O)c1cccc(C)c1 (centres unmarked) [Compound 243, N-((2-methoxyphenyl)(m-tolyl)methyl)-2-oxo-6-(trifluoromethyl)-1,2-dihydropyridine-3-carboxamide] |
| 0.29 µM | COc1ccccc1C(NC(=O)c1ccc(C(F)(F)F)[nH]c1=O)c1ccc(C)cc1 (centres unmarked) [Compound 244, N-((2-methoxyphenyl)(p-tolyl)methyl)-2-oxo-6-(trifluoromethyl)-1,2-dihydropyridine-3-carboxamide] |
| 1.08 µM | CSc1ccccc1C(NC(=O)c1ccc(C(F)(F)F)[nH]c1=O)c1cccc(C)c1 (centres unmarked) [Compound 245, N-((2-(methylthio)phenyl)(m-tolyl)methyl)-2-oxo-6-(trifluoromethyl)-1,2-dihydropyridine-3-carboxamide] |
| 0.3 µM | CSc1ccccc1C(NC(=O)c1ccc(C(F)(F)F)[nH]c1=O)c1ccc(C)cc1 (centres unmarked) [Compound 246, N-((2-(methylthio)phenyl)(p-tolyl)methyl)-2-oxo-6-(trifluoromethyl)-1,2-dihydropyridine-3-carboxamide] |
| 0.93 µM | CSc1c(C)cccc1C(NC(=O)c1ccc(C(F)(F)F)[nH]c1=O)c1ccccc1 (centres unmarked) [Compound 247, N-((3-methyl-2-(methylthio)phenyl)(phenyl)methyl)-2-oxo-6-(trifluoromethyl)-1,2-dihydropyridine-3-carboxamide] |
| 0.3 µM | Cc1ccc2c(c1)C(NC(=O)c1ccc(C(F)(F)F)[nH]c1=O)c1ccccc1S2 (centres unmarked) [Compound 248, N-(2-methyl-9H-thioxanthen-9-yl)-2-oxo-6-(trifluoromethyl)-1,2-dihydropyridine-3-carboxamide] |
| 0.39 µM | O=C(NC1c2ccccc2Sc2ccc(Cl)cc21)c1ccc(C(F)(F)F)[nH]c1=O (centres unmarked) [Compound 249, N-(2-chloro-9H-thioxanthen-9-yl)-2-oxo-6-(trifluoromethyl)-1,2-dihydropyridine-3-carboxamide] |
| 0.06 µM | O=C(NC1c2ccc(Cl)cc2Sc2cc(Cl)ccc21)c1ccc(C(F)(F)F)[nH]c1=O [Compound 250, N-(3,6-dichloro-9H-thioxanthen-9-yl)-2-oxo-6-(trifluoromethyl)-1,2-dihydropyridine-3-carboxamide] |
| 0.65 µM | O=C(NC1c2ccc(Cl)cc2Sc2cccc(Cl)c21)c1ccc(C(F)(F)F)[nH]c1=O (centres unmarked) [Compound 251, N-(1,6-dichloro-9H-thioxanthen-9-yl)-2-oxo-6-(trifluoromethyl)-1,2-dihydropyridine-3-carboxamide] |
| 4.27 µM | Cc1ccc2c(c1)Sc1cccc(C)c1C2NC(=O)c1ccc(C(F)(F)F)[nH]c1=O (centres unmarked) [Compound 253, N-(1,6-dimethyl-9H-thioxanthen-9-yl)-2-oxo-6-(trifluoromethyl)-1,2-dihydropyridine-3-carboxamide] |
| > 10 µM | O=C(NC1c2ccc(Cl)cc2Oc2cccc(Cl)c21)c1ccc[nH]c1=O (centres unmarked) [Compound 254, N-(1,6-dichloro-9H-xanthen-9-yl)-2-oxo-1,2-dihydropyridine-3-carboxamide] |
| > 10 µM | O=C(NC1c2ccc(Cl)cc2Oc2cc(Cl)ccc21)c1ccc[nH]c1=O [Compound 255, N-(3,6-dichloro-9H-xanthen-9-yl)-2-oxo-1,2-dihydropyridine-3-carboxamide] |
| > 10 µM | COc1cc(C)cc2c1CCC2NC(=O)c1ccc(C(F)(F)F)[nH]c1=O (centres unmarked) [Compound 256, N-(4-methoxy-6-methyl-2,3-dihydro-1H-inden-1-yl)-2-oxo-6-(trifluoromethyl)-1,2-dihydropyridine-3-carboxamide] |

The next lines start with the compound.

| Compound | IC50 |
| --- | --- |
| Cc1cc(C(=O)NC2c3ccc(Cl)cc3Oc3cccc(Cl)c32)c(=O)[nH]c1C(F)(F)F (centres unmarked) [Compound 211, N-(1,6-dichloro-9H-xanthen-9-yl)-5-methyl-2-oxo-6-(trifluoromethyl)-1,2-dihydropyridine-3-carboxamide] | 0.87 µM |
| CCc1ccc(C(=O)NC2c3ccccc3-c3ccccc32)c(=O)[nH]1 [Compound 212, 6-ethyl-N-(9H-fluoren-9-yl)-2-oxo-1,2-dihydropyridine-3-carboxamide] | > 10 µM |
| Cc1cc(C(F)(F)F)[nH]c(=O)c1C(=O)NC1c2ccccc2-c2ccccc21 [Compound 213, N-(9H-fluoren-9-yl)-4-methyl-2-oxo-6-(trifluoromethyl)-1,2-dihydropyridine-3-carboxamide] | 2.24 µM |
| Cc1c(C(F)(F)F)[nH]c(=O)c(C(=O)NC2c3ccccc3-c3ccccc32)c1C [Compound 214, N-(9H-fluoren-9-yl)-4,5-dimethyl-2-oxo-6-(trifluoromethyl)-1,2-dihydropyridine-3-carboxamide] | > 10 µM |
| O=C(NCc1ccc(Cl)cc1Oc1cccc(Cl)c1)c1ccc(C(F)(F)F)[nH]c1=O [Compound 216, N-(4-chloro-2-(3-chlorophenoxy)benzyl)-2-oxo-6-(trifluoromethyl)-1,2-dihydropyridine-3-carboxamide] | 3.19 µM |
| O=C(NCC1c2ccccc2-c2ccccc21)c1ccc(C(F)(F)F)[nH]c1=O [Compound 217, N-((9H-fluoren-9-yl)methyl)-2-oxo-6-(trifluoromethyl)-1,2-dihydropyridine-3-carboxamide] | 8.31 µM |
| Cc1ccc(C(C)NC(=O)c2ccc(C(F)(F)F)[nH]c2=O)cc1 (centres unmarked) [Compound 218] | 9.55 µM |
| O=C(NC(c1ccc(Cl)cc1)c1ccncn1)c1ccc(C(F)(F)F)[nH]c1=O (centres unmarked) [Compound 219, N-((4-chlorophenyl)(pyrimidin-4-yl)methyl)-2-oxo-6-(trifluoromethyl)-1,2-dihydropyridine-3-carboxamide] | > 10 µM |
| O=C(NC(c1ccc(Cl)cc1)c1cncnc1)c1ccc(C(F)(F)F)[nH]c1=O (centres unmarked) [Compound 220, N-((4-chlorophenyl)(pyrimidin-5-yl)methyl)-2-oxo-6-(trifluoromethyl)-1,2-dihydropyridine-3-carboxamide] | > 10 µM |
| O=C(NC(c1ccccc1)c1cccc(=O)[nH]1)c1ccc(C(F)(F)F)[nH]c1=O (centres unmarked) [Compound 221, 2-oxo-N-((6-oxo-1,6-dihydropyridin-2-yl)(phenyl)methyl)-6-(trifluoromethyl)-1,2-dihydropyridine-3-carboxamide] | 6.4 µM |
| CC(NC(=O)c1ccc(C(F)(F)F)[nH]c1=O)c1ccc(Cl)cc1Oc1cccc(Cl)c1 (centres unmarked) [Compound 222, N-(1-(4-chloro-2-(3-chlorophenoxy)phenyl)ethyl)-2-oxo-6-(trifluoromethyl)-1,2-dihydropyridine-3-carboxamide] | 2.17 µM |
| O=C(Nc1cccc(O)c1)c1ccc(C(F)(F)F)[nH]c1=O [Compound 224, N-(3-hydroxyphenyl)-2-oxo-6-(trifluoromethyl)-1,2-dihydropyridine-3-carboxamide] | > 10 µM |
| CCc1cccc(NC(=O)c2ccc(C(F)(F)F)[nH]c2=O)c1 [Compound 225, N-(3-ethylphenyl)-2-oxo-6-(trifluoromethyl)-1,2-dihydropyridine-3-carboxamide] | 4.65 µM |
| Cc1cccc(NC(=O)c2ccc(C(F)(F)F)[nH]c2=O)c1 [Compound 226, 2-oxo-N-(m-tolyl)-6-(trifluoromethyl)-1,2-dihydropyridine-3-carboxamide] | 8.05 µM |
| O=C(Nc1cccc(Cl)c1)c1ccc(C(F)(F)F)[nH]c1=O [Compound 227, N-(3-chlorophenyl)-2-oxo-6-(trifluoromethyl)-1,2-dihydropyridine-3-carboxamide] | 9.85 µM |
| O=C(Nc1cccc2cc(O)ccc12)c1ccc(C(F)(F)F)[nH]c1=O [Compound 229, N-(6-hydroxynaphthalen-1-yl)-2-oxo-6-(trifluoromethyl)-1,2-dihydropyridine-3-carboxamide] | 1.4 µM |
| Cc1ccc2c(c1O)CCCC2NC(=O)c1ccc(C(F)(F)F)[nH]c1=O (centres unmarked) [Compound 231, N-(5-hydroxy-6-methyl-1,2,3,4-tetrahydronaphthalen-1-yl)-2-oxo-6-(trifluoromethyl)-1,2-dihydropyridine-3-carboxamide] | 0.03 µM |
| COc1c(C)ccc2c1CCCC2NC(=O)c1ccc(C(F)(F)F)[nH]c1=O (centres unmarked) [Compound 232, N-(5-methoxy-6-methyl-1,2,3,4-tetrahydronaphthalen-1-yl)-2-oxo-6-(trifluoromethyl)-1,2-dihydropyridine-3-carboxamide] | 2.69 µM |
| Cc1ccc2c(c1)C(NC(=O)c1ccc(C(F)(F)F)[nH]c1=O)CCO2 (centres unmarked) [Compound 233, N-(6-methylchroman-4-yl)-2-oxo-6-(trifluoromethyl)-1,2-dihydropyridine-3-carboxamide] | 1.32 µM |
| Cc1ccc2c(c1)C(NC(=O)c1ccc(C(F)(F)F)[nH]c1=O)CCS2 (centres unmarked) [Compound 236, N-(6-methylthiochroman-4-yl)-2-oxo-6-(trifluoromethyl)-1,2-dihydropyridine-3-carboxamide] | 0.74 µM |
| Cc1ccc2c(c1)C(NC(=O)c1ccc(C(F)(F)F)[nH]c1=O)CC2 (centres unmarked) [Compound 237, N-(6-methyl-2,3-dihydro-1H-inden-1-yl)-2-oxo-6-(trifluoromethyl)-1,2-dihydropyridine-3-carboxamide] | 0.49 µM |
